pIC50: −log10 of the molar value. Read-outs that look alike come from different tables or passages of the source. Square brackets hold non-standard residues; d marks the D form. Peptide text beside a SMILES is read from it.
Legend:
[1] = target: calmodulin (Homo sapiens, UniProt P0DP23); experiment: calcium-dependent phosphodiesterase assay (calmodulin activity); type: biochemical
How it was run: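 Calmodulin (5 units) stimulation of Ca2+-activated phosphodiesterase measured by coupling cAMP→5'-AMP to 5'-nucleotidase, with released Pi read at 660 nm after ammonium molybdate reaction.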

[2] = tested on: rat liver cells; experiment: in vivo rat model: DNA synthesis of rat liver cells after partial hepatectomy; conditions: intravenous injection 5 hours after partial hepatectomy, measured 24 hours post hepatectomy
From the text: The effect that calmodulin inhibitors have on DNA synthesis were also studied in vivo in a rat model. Rat liver cells are a useful in vivo system for studying synchronized cells and the cell cycle. By partial hepatectomy, the hepatocyte quiescent cells present in normal adult rat liver can be stimulated to enter the replicative cell cycle and the effect of inhibitors on the cycle analyzed. This example provides the effect of the subject calmodulin inhibitory peptides on the DNA synthesis of rat liver cells in partial hepatectomy stage following intra venal injection of the peptides.
Male Sprague-Dawley rats ([…]; 2 rats per peptide or control) were fasted overnight. Partial hepatectomies were carried out under Ketolar anesthesia (Parke-Davis; Ann Arbor, Mich.), following the procedure described by Higgins and Anderson in Arch. Pathol., 12:186-202 (1931), which is incorporated herein by reference. […] DNA synthesis was assessed by measuring the radioactivity incorporated into DNA following an intraperitoneal injection (0.5 mCi/g body weight) of [^3 H] thymidine 1 hr prior to killing the rat and at 23 hours post hepatectomy. […] The liver tissue was homogenized in 10% trifluoroacetic acid at 4° C. and the DNA extracted and its radioactivity measured following the procedure described by Burton, Biochem. J., 62:315-320 (1956), which is incorporated herein by reference. […]

[3] = target: phosphodiesterase; experiment: calcium-dependent phosphodiesterase assay in the absence of calmodulin; type: biochemical; conditions: Table III
Protocol: To sample assay tubes were added the following components: assay buffer, 25 ul; CaCl2, 5 ul; 5'-nucleotidase, 7.5 ul (stock solution is 10 units/ml); calmodulin 5 units; calmodulin inhibitor peptides to obtain the desired final concentration of 50 μM. The volume was then made up to 200 ul with water. Control blanks were prepared replacing the peptides with water. The added components were thoroughly mixed and the tubes incubated at 30° C. for 10 min. Then, 25 ul of cAMP at 10.8 mM was added and incubated for 90 min at 30° C. The reaction was stopped by the addition of 50 ul of 55% trichloroacetic acid (TCA). The samples were centrifuged to remove the protein precipitate and the 50 ul of the supernatant was withdrawn for phosphate measurement. To the supernatant aliquot, 50 ul ammonium molybdate (0.55% in 1.1 N sulfuric acid) was added, followed by the addition of 5 ul of reducing agent (24 g sodium bisulfite, 2.4 g sodium sulfite, 0.5 g of 1-amino-2-naphthol-4-sulfonic acid in 200 ml of water), and the contents were mixed by vortexing. The absorbance of the solution were read at 660 nm using water as a blank, identified as control "Calmo."
As described above, one of the undesirable biological effects of existing calmodulin inhibitors is their non-specific binding to other proteins and the like. Therefore, the specificity of the instant inhibitory peptides for calmodulin was examined. The specificity was determined using the calcium-dependent phosphodiesterase assay described in Example I. The assay was carried out for the determination of IC50 values in the presence of calmodulin (IC50 value for calmodulin) and in the absence of calmodulin (IC50 for phosphodiesterase), the latter of which provides the effect of the inhibitory peptides on the phosphodiesterase.

[4] = tested on: NRK cells; experiment: long term stability: number of NRK cells at 48 hr after activation; type: cell-based, rat; conditions: added at 5 hr, counted 48 hr after activation
From the text: The similar activity found for the (L)-amino acid peptides and (D)-amino acid peptides indicate that the inhibition of calmodulin occurs rapidly following the addition of the inhibitory peptides. The peptides' long term stability was then studied by adding Ac-(D)Leu-(D)Trp-(D)Arg-(D)Ile-(D)Leu-(D)Trp-NH2, Ac-Leu-Trp-Arg-Ile-Leu-Trp-NH2 (SEQ ID No. 48), W13 and W12 at 5 hr following the reentry of the NRK cells into the cell cycle and measuring the number of cells at 48 hr after activation.

## CC[C@@H](C)[C@@H](NC(=O)[C@@H](CCCNC(=N)N)NC(=O)[C@@H](Cc1c[nH]c2ccccc12)NC(=O)[C@@H](CC(C)C)NC(C)=O)C(=O)N[C@H](CC(C)C)C(=O)N[C@H](Cc1c[nH]c2ccccc12)C(N)=O [Ac-(D)Leu-(D)Trp-(D)Arg-(D)Ile-(D)Leu-(D)Trp-NH2] (Ac-[dL][dW][dR][dI][dL][dW]-NH2)
[1]; Table I, assayed at 75, 50 and 12.5 μM, average of repeated assays, read-out: Average IC50
  pIC50: 5.27
[1]; Table III, in the presence of calmodulin, read-out: IC50 (μM) for calmodulin
  IC50: 7.1 µM
[1]; comparison of IC50 for phosphodiesterase with IC50 for calmodulin
  SPECIFICITY: 17
[2]
  % DNA SYNTHESIS: 50%
[3]
  IC50: 118 µM
[4]
  number of cells relative to control cells: significantly lower number of cells
